Source: ChEMBL document CHEMBL5380864, “Novel Synthesis of C-Methylated Phytocannabinoids Bearing Anti-inflammatory Properties” (J Med Chem, 2023)
Calls of active or inactive are those of the source. No cut-off for these calls is given here.

What was measured:
[1] = test system: BMDM; experiment: Inhibition of IL-1beta mRNA expression in LPS-stimulated human bone-marrow derived macrophage cells at 5 uM preincubated with compound for 3 hrs followed by LPS stimulation for 3 hrs and measured 30 mins after ATP addition by qRT-PCR analysis; format: functional, cell-based; conditions: time 6.5 hrs
[2] = test system: Mus musculus; experiment: Anti- inflammatory activity against C57BL/6 mouse model of LPS-induced peritonitis assessed as reduction in plasma IL-1beta level at 5 mg/kg, ip pre-administered for 60 mins followed by LPS-stimulation and measured after 90 mins by ELISA analysis; format: functional, organism-based; conditions: time 150.0 min
[3] = test system: Mus musculus; experiment: Anti- inflammatory activity against C57BL/6 mouse model of LPS-induced peritonitis assessed as reduction in plasma IL-6 level at 5 mg/kg, ip pre-administered for 60 mins followed by LPS-stimulation and measured after 90 mins by ELISA analysis; format: functional, organism-based; conditions: time 150.0 min
[4] = test system: Mus musculus; experiment: Anti-inflammatory activity against zymosan A-induced Sabra mouse model assessed as reduction in TNF-alpha level at 10 to 25 mg/kg, ip measured after 24 hrs by ELISA analysis; format: functional, organism-based; conditions: dose 10-25 mg/kg
[5] = test system: Mus musculus; experiment: Anti-inflammatory activity against zymosan A-induced Sabra mouse model assessed as reduction in pain sensation at 10 to 25 mg/kg, ip measured after 6 hrs; format: functional, organism-based; conditions: dose 10-25 mg/kg
[6] = test system: Mus musculus; experiment: Anti-inflammatory activity against zymosan A-induced Sabra mouse model assessed as reduction in paw swelling at 10 to 25 mg/kg, ip measured after 6 hrs; format: functional, organism-based; conditions: dose 10-25 mg/kg
[7] = test system: BMDM; experiment: Inhibition of IL-1beta protein expression in LPS-stimulated human bone-marrow derived macrophage cells at 5 uM preincubated with compound for 3 hrs followed by LPS stimulation for 3 hrs and measured 30 mins after ATP addition by ELISA analysis; format: functional, cell-based; conditions: time 6.5 hrs
[8] = test system: Mus musculus; experiment: Anti- inflammatory activity against C57BL/6 mouse model of LPS-induced peritonitis assessed as reduction in plasma TNF alpha level at 5 mg/kg, ip pre-administered for 60 mins followed by LPS-stimulation and measured after 90 mins by ELISA analysis; format: functional, organism-based; conditions: time 150.0 min
[9] = test system: Mus musculus; experiment: Anti-inflammatory activity against zymosan A-induced Sabra mouse model assessed as reduction in pain sensation at 5 to 50 mg/kg, ip measured after 6 hrs; format: functional, organism-based; conditions: dose 5-50 mg/kg
[10] = test system: Mus musculus; experiment: Anti-inflammatory activity against zymosan A-induced Sabra mouse model assessed as reduction in paw swelling at 5 to 50 mg/kg, ip measured after 6 hrs; format: functional, organism-based; conditions: dose 5-50 mg/kg
[11] = test system: Mus musculus; experiment: Anti-inflammatory activity against zymosan A-induced Sabra mouse model assessed as reduction in TNF-alpha level at 5 to 50 mg/kg, ip measured after 24 hrs by ELSA analysis; format: functional, organism-based; conditions: dose 5-50 mg/kg
[12] = test system: Mus musculus; experiment: Anti-inflammatory activity against zymosan A-induced Sabra mouse model assessed as reduction in paw swelling at 5 to 25 mg/kg, ip measured after 6 hrs; format: functional, organism-based; conditions: dose 5-25 mg/kg
[13] = test system: Mus musculus; experiment: Anti-inflammatory activity against zymosan A-induced Sabra mouse model assessed as reduction in TNF-alpha level administered intraperitoneally and measured after 24 hrs by ELISA analysis; format: functional, organism-based; conditions: route ip
[14] = test system: Mus musculus; experiment: Anti-inflammatory activity against zymosan A-induced Sabra mouse model assessed as reduction in […] at 5 to 25 mg/kg, ip measured after 6 hrs; format: functional, organism-based; conditions: dose 5-25 mg/kg
[15] = test system: Mus musculus; experiment: Anti- inflammatory activity against C57BL/6 mouse model of LPS-induced peritonitis assessed as reduction in plasma IL-6 level at 10 mg/kg, ip pre-administered for 60 mins followed by LPS-stimulation and measured after 90 mins by ELISA analysis; format: functional, organism-based; conditions: time 150.0 min
[16] = test system: Mus musculus; experiment: Anti- inflammatory activity against C57BL/6 mouse model of LPS-induced peritonitis assessed as reduction in plasma IL-1beta level at 10 mg/kg, ip pre-administered for 60 mins followed by LPS-stimulation and measured after 90 mins by ELISA analysis; format: functional, organism-based; conditions: time 150.0 min
[17] = test system: Mus musculus; experiment: Anti- inflammatory activity against C57BL/6 mouse model of LPS-induced peritonitis assessed as reduction in plasma TNF alpha level at 10 mg/kg, ip pre-administered for 60 mins followed by LPS-stimulation and measured after 90 mins by ELISA analysis; format: functional, organism-based; conditions: time 150.0 min
[18] = test system: Mus musculus; experiment: Anti-inflammatory activity against zymosan A-induced Sabra mouse model assessed as reduction in TNF-alpha level at 5 to 25 mg/kg, ip measured after 24 hrs by ELISA analysis; format: functional, organism-based; conditions: dose 5-25 mg/kg
[19] = test system: Mus musculus; experiment: Anti-inflammatory activity against zymosan A-induced Sabra mouse model assessed as reduction in pain sensation administered intraperitoneally and measured after 6 hrs; format: functional, organism-based; conditions: dose 5-50 mg/kg, route ip

CCCCCc1cc(O)c([C@@H]2C=C(C)CC[C@H]2C(C)C)c(O)c1C
inhibition [1]: Active
Activity [2]: Active
Activity [3]: inactive
Activity [4]: Active
Activity [5]: Active
Activity [6]: Active
inhibition [7]: Active
Activity [8]: Active

CCCCCc1cc(OC)c(C/C=C(\C)CCC=C(C)C)c(OC)c1C
Activity [9]: Active
Activity [10]: Active
Activity [11]: Active

C=C(C)[C@@H]1CCC(C)=C[C@H]1c1c(O)cc(CCCCC)c(C)c1O
Activity [9]: Active
Activity [10]: Active
Activity [11]: Active

C=C(C)[C@@H]1CCC(C)=C[C@H]1c1c(O)cc(O)c(C)c1CCCCC
Activity [12]: Active
Activity [13]: Dose-Dependent Effect
Activity [14]: Active

C=C(C)[C@@H]1CCC(C)=C[C@H]1c1c(OC)cc(CCCCC)c(C)c1OC
Activity [15]: inactive
Activity [4]: Active
Activity [16]: inactive
Activity [17]: Active
Activity [5]: Active
Activity [6]: Active

CCCCCc1cc(O)c(C/C=C(\C)CCC=C(C)C)c(O)c1C
Activity [18]: Active
Activity [12]: Active
Activity [2]: Active
Activity [3]: inactive
Activity [14]: Active
Activity [8]: inactive

C=C(C)[C@@H]1CCC(C)=C[C@H]1c1c(O)c(C)c(CCCCC)c(C)c1O
Activity [10]: Active
Activity [19]: Dose-Dependent Effect
Activity [11]: Active
